# Measured values taken from US4897382A, “Organic amide compounds derived from nitrogenous lipids” (priority 1981, dated 1990).
# Entries after “also recorded” stand apart in the source; their conditions may differ. Where two headings read alike, the source gives them in different places.
# Experiments:
# [1] = Anticonvulsant effects in rat (isoniazide convulsions); assay type: in vivo
# Method: The in vivo activity of Product 1 was measured by the method described by Costa et al (E. Costa, A. Guidotti and C. C. Mao; "Evidence for involvement of GABA in the Action of Benzodiazepines: Studies in Rat Cerebellum" in Mechanism of Action of Benzodiazepines; Ed. by E. Costa and P. Greengard, New York, Raven Press. pp. 113-130 (1975)) and by Loescher and Frey (Loesher, W. and Frey, H. H.; "Effect of convulsant and anticonvulsant agents on level and metabolism of gamma-aminobutyric acid in mouse brain"; Naunyn-Schmiedeberg's Arch. Pharmacol. 296, 263-269 (1977)). These tests are based on the known activity of isoniazide to cause convulsions and a lowering of the GABA cerebral levels and the glutamic-decarboxylase enzyme activity.
# prolactin [2] = assay: Hypoprolactinemic effect in rats, serum prolactin by RIA, sulpiride-treated (hyperprolactinemic) animals; conditions: for inhibition in vivo at 0.5 mg/kg / inhibition in vivo at 5 mg/kg: Rattus norvegicus; for inhibition in vivo at 0.5 mg/kg: read-out: Prolactin Inhibition %, sulpiride 10 γ/kg + 0.5 mg/kg test substance; for inhibition in vivo at 5 mg/kg: read-out: Prolactin Inhibition %, sulpiride 10 γ/kg + 5.0 mg/kg test substance
# prolactin [3] = assay: Hypoprolactinemic effect in rats, serum prolactin by RIA, at the circadian peak at 4 p.m.; conditions: for inhibition in vivo at 0.5 mg/kg / inhibition in vivo at 5 mg/kg: Rattus norvegicus; for in vivo (hypoprolactinemic) activity, in words: rats, summary statement
# dopamine receptors = molecular target: T1, dopamine receptors (Rattus norvegicus, UniProt P61169); assay: Binding of (^3H)-spiroperidole to hypophysis membranes of rat; conditions: for binding power / in vitro activity, in words: compared to the parent acid or lipid alone; for activity at 1 µM: test substance 10^-6 M; for activity at 0.1 µM: test substance 10^-7 M
# T1 construct: on hypophysis sinaptosomal rat membranes; from tissue; host or cells: rat hypophysis (pituitary), synaptosomal membranes
# Method: The in vitro biological activity was determined by comparative tests measuring the binding power of the labelled spiroperidole (^3 H)-spiroperidole on hypophysis sinaptosomal rat membranes according to the method described by Greese et al (GREESE I., SCHNEIDER R. and SNYDER S. H.; H-spiroperidole labels dopamine receptors in pituitary and brain; Europ. J. Pharmacol. 46, 377-381 (1977)).
# [4] = General pharmacological activity in vitro and in vivo; conditions: tested in vitro and in vivo in laboratory animals
# [5] = system: synaptic membranes of the rat cortex; assay: Binding of ^3H-GABA on synaptic membranes of the rat cortex (method of Enna and Snyder); conditions: for Product bound % (^3H-GABA binding on rat cortex membranes): ^3H-GABA 2.10^-8 M
# Description: Table I presents the results of these tests, expressed in percentage of the fixed active product, comparing the in vitro activity of Product 1 with the activities of the individual components which comprise Product 1.
# [6] = isoniazide 160 mg/kg (s.c.) alone
# [7] = sulpiride 10 γ/kg + 0.5 mg/kg test substance
# [8] = sulpiride 10 γ/kg + 5.0 mg/kg test substance
# [9] = 0.5 mg/kg, circadian peak at 4 p.m.
# [10] = 5.0 mg/kg, circadian peak at 4 p.m.
# [11] = read-out: Prolactin Inhibition %, 0.5 mg/kg, circadian peak at 4 p.m.
# [12] = read-out: Prolactin Inhibition %, 5.0 mg/kg, circadian peak at 4 p.m.
# [13] = read-out: Product bound % ((^3H) spiroperidole binding to hypophysis membranes), (^3H) spiroperidole 2.10^-9 M (2 nM), test substance 10^-4 M
# [14] = read-out: Product bound % ((^3H) spiroperidole binding to hypophysis membranes), (^3H) spiroperidole 2.10^-9 M (2 nM), test substance 10^-5 M
# [15] = read-out: Product bound % ((^3H) spiroperidole binding to hypophysis membranes), (^3H) spiroperidole 2.10^-9 M (2 nM)
# [16] = read-out: Prolactin Inhibition %
# [17] = (^3H) spiroperidole 2.10^-9 M (2 nM), test substance 10^-4 M, read-out: Product bound % ((^3H) spiroperidole binding to hypophysis membranes)
# [18] = (^3H) spiroperidole 2.10^-9 M (2 nM), test substance 10^-5 M, read-out: Product bound % ((^3H) spiroperidole binding to hypophysis membranes)
# [19] = (^3H) spiroperidole 2.10^-9 M (2 nM), read-out: Product bound % ((^3H) spiroperidole binding to hypophysis membranes)
# [20] = isoniazide 160 mg/kg (s.c.) + sphingosine 12 mg/kg (i.p.)
# T1 sequence (P61169 whole entry): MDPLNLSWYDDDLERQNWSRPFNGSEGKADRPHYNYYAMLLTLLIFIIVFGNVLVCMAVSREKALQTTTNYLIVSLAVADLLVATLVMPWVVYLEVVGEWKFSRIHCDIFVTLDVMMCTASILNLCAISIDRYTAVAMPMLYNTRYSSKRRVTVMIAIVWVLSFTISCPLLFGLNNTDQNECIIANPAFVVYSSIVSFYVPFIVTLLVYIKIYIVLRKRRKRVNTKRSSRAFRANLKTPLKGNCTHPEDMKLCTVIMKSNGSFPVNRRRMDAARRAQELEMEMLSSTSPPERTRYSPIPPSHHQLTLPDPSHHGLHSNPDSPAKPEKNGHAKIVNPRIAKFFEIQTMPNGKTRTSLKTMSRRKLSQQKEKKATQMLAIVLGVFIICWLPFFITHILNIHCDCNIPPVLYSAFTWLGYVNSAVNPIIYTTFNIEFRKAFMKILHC
SMILES,inhibition in vivo at 0.5 mg/kg (prolactin [2]),inhibition in vivo at 5 mg/kg (prolactin [2]),Prolactin (prolactin [2]; [7]),Prolactin (prolactin [2]; [8]),Prolactin (prolactin [3]; [9]),Prolactin (prolactin [3]; [10]),inhibition in vivo at 0.5 mg/kg (prolactin [3]; [11]),inhibition in vivo at 5 mg/kg (prolactin [3]; [12]),"in vivo (hypoprolactinemic) activity, in words (prolactin [3])","binding power / in vitro activity, in words (dopamine receptors)",activity at 100 µM (dopamine receptors; [13]),activity at 10 µM (dopamine receptors; [14]),activity at 1 µM (dopamine receptors; [15]),activity at 0.1 µM (dopamine receptors; [15]),further results
"NNC(=O)c1ccncc1 [Isoniazide, isoniazide]",–,–,–,–,–,–,–,–,–,–,–,–,–,–,"Latency of the convulsions measured [1, 6]: 3070 ± 110 s; Number of animals in convulsions [1, 6]: 26/30; Number of dead animals [1, 6]: 15"
"CCCCCCCCCCCCCC=CC(O)C(CO)NC(=O)[C@@H]1C=C2c3cccc4[nH]cc(c34)C[C@H]2N(C)C1 (some centres unmarked) [Product 2.2, Lysergylsphingosine-amide]",32%,44%,59.0 ± 6.0 ng/mL,49.0 ± 5.0 ng/mL,48.0 ± 4.8 ng/mL,40.0 ± 2.6 ng/mL,27%,39%,far superior to either lysergic acid or sphingosine alone,far superior to either lysergic acid or sphingosine alone,35%,55%,85%,100%,–
"CCCCCCCCCCCCCC=CC(O)C(CO)NC(=O)C1CC2c3cccc4[nH]cc(c34)CC2N(C)C1 (centres unmarked) [Product 3, Dihydrolysergylsphingosine amide]",30%,60%,53.7 ± 8.5 ng/mL,31.2 ± 2.5 ng/mL,38.7 ± 4.7 ng/mL,32.2 ± 5.7 ng/mL,42%,52%,significant biological activity,"significant and far superior, under the same experimental conditions, to that of dihydrolysergic acid or sphingosine alone",10%,40%,90%,100%,"action in the central nervous system, in words [4]: capable of acting directly in the central nervous system"
"CCCCCCCCCCCCCCCC(O)C(CO)NC(=O)C1CC2c3cccc4[nH]cc(c34)CC2N(C)C1 (centres unmarked) [Product 15, Dihydrolysergyldihydrosphingosine amide]",44%,55%,48.0 ± 4.0 ng/mL,39.0 ± 6.0 ng/mL,40.0 ± 5.6 ng/mL,31.0 ± 3.4 ng/mL,35%,50%,far superior to either dihydrolysergic acid or dihydrosphingosine alone,far superior to either dihydrolysergic acid or dihydrosphingosine alone,20%,30%,90%,100%,"action in the central nervous system, in words [4]: capable of acting directly in the central nervous system"
"CCCCCCCCCCCCCC=CC(O)C(COC1OC(CO)C(O)C(O)C1O)NC(=O)C1CC2c3cccc4[nH]cc(c34)CC2N(C)C1 (centres unmarked) [Product 16, Dihydrolysergylpsychosine amide]",37%,52%,51.0 ± 7.0 ng/mL,39.0 ± 4.0 ng/mL,40.0 ± 7.0 ng/mL,31.0 ± 6.0 ng/mL,31%,47%,far superior to either dihydrolysergic acid or psychosine alone,far superior to either dihydrolysergic acid or psychosine alone,25%,45%,80%,100%,"action in the central nervous system, in words [4]: capable of acting directly in the central nervous system"
CN1C[C@H](C(=O)O)CC2c3cccc4[nH]cc(c34)C[C@H]21 (some centres unmarked) [dihydrolysergic acid],0%,–,–,–,–,–,0%,25%,weak effect; also recorded: essentially inactive when administered alone,–,45%,95%,100%,100%,"Product bound % ((^3H) spiroperidole binding to hypophysis membranes) (dopamine receptors; (^3H) spiroperidole 2.10^-9 M (2 nM), test substance 10^-4 M, 100 µM): 60%; Product bound % ((^3H) spiroperidole binding to hypophysis membranes) (dopamine receptors; (^3H) spiroperidole 2.10^-9 M (2 nM), test substance 10^-5 M, 10 µM): 90%"
CCCCCCCCCCCCCCCC(O)C(N)CO (centres unmarked) [dihydrosphingosine],–,–,81.0 ± 11.0 ng/mL,74.0 ± 6.0 ng/mL,66.0 ± 4.2 ng/mL,60.0 ± 2.8 ng/mL,–,–,–,–,–,–,–,–,inhibition in vivo at 0.5 mg/kg (prolactin [3]; [16]): 0%; inhibition in vivo at 5 mg/kg (prolactin [3]; [16]): 0%; activity at 100 µM (dopamine receptors; [17]): 100%; activity at 10 µM (dopamine receptors; [18]): 100%; activity at 1 µM (dopamine receptors; [19]): 100%; activity at 0.1 µM (dopamine receptors; [19]): 100%
CN1C[C@@H](C(=O)O)C=C2c3cccc4[nH]cc(c34)C[C@H]21 [isolysergic acid],–,–,–,–,–,–,–,–,essentially inactive when administered alone,–,–,–,–,–,–
CN1C[C@H](C(=O)O)C=C2c3cccc4[nH]cc(c34)C[C@H]21 [lysergic acid],13%,16%,76.0 ± 9.0 ng/mL,73.0 ± 10.0 ng/mL,61.0 ± 3.8 ng/mL,52.0 ± 6.2 ng/mL,0%,20%,essentially inactive when administered alone,–,60%,90%,100%,100%,–
"CCCCCCCCCCCCCC=CC(O)C(N)COC1OC(CO)C(O)C(O)C1O (centres unmarked) [psychosine, Psychosine or galactosylsphingosine]",–,–,70.0 ± 6.0 ng/mL,61.0 ± 7.0 ng/mL,50.0 ± 5.0 ng/mL,41.0 ± 5.0 ng/mL,–,–,–,–,–,–,–,–,inhibition in vivo at 0.5 mg/kg (prolactin [3]; [16]): 14%; inhibition in vivo at 5 mg/kg (prolactin [3]; [16]): 30%; activity at 100 µM (dopamine receptors; [17]): 60%; activity at 10 µM (dopamine receptors; [18]): 90%; activity at 1 µM (dopamine receptors; [19]): 100%; activity at 0.1 µM (dopamine receptors; [19]): 100%
CCCCCCCCCCCCC/C=C/[C@@H](O)[C@@H](N)CO [sphingosine],0%,–,–,–,–,–,0%,0%,–,–,100%,100%,100%,100%,"Prolactin Inhibition % (prolactin [2]; [7]): 0%; Prolactin Inhibition % (prolactin [3]; [9]): 0%; Prolactin Inhibition % (prolactin [3]; [10]): 0%; Latency of the convulsions measured [1, 20]: 3700 ± 200 s; Number of animals in convulsions [1, 20]: 20/30; Number of dead animals [1, 20]: 9; Product bound % (^3H-GABA binding on rat cortex membranes) ([5]; test substance 10^-4 M, 100 µM): 100%; Product bound % (^3H-GABA binding on rat cortex membranes) ([5]; test substance 10^-5 M, 10 µM): 100%; Product bound % (^3H-GABA binding on rat cortex membranes) ([5]; test substance 10^-6 M, 1 µM): 100%; Product bound % (^3H-GABA binding on rat cortex membranes) ([5]; test substance 10^-7 M, 0.1 µM): 100%; Product bound % (^3H-GABA binding on rat cortex membranes) ([5]; test substance 10^-8 M, 0.01 µM): 100%; in vitro biological activity (GABA binding), in words ([5]; summary of Table I): no biological activity"
